The structures appear in SMILES notation.

For orientation: IC50 means the midpoint of a concentration-inhibition curve. High values mean weaker potency in that assay, low ones greater potency in that assay.

The test system of this assay is KRAS G12V dependent lung adenocarcinoma cell line, NCI-H441. In words: Cellular pERK (Thr202/Tyr204) FRET/HTRF assay. The assay is classed as cell-based. The following applies: Homo sapiens, NCI-H441, cellular pERK (Thr202/Tyr204) HTRF, NCI-H441 cells. An outline of the steps:
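Read-out is a wash-free FRET sandwich immunoassay for endogenous ERK1/2 phosphorylated on Thr202/Tyr204. Signal was measured in NCI-H441 lung adenocarcinoma cells after 1 hr compound exposure at 37 °C. IC50 values come from fitted concentration-response curves.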
(In general: Time-resolved FRET reads energy transfer from a long-lived donor to a nearby acceptor.)
Turning to `[2H]C([2H])(Oc1nc(N2CCOC[C@H]3[C@H](F)[C@H]32)c2cc(C(F)(F)F)c(-c3cc(N)cc4ccc(F)c(C#C)c34)c(F)c2n1)[C@@]12CCCN1C[C@H](F)C2` [Example 328, 5-ethynyl-6-fluoro-4-(8-fluoro-4-((1S,7S,8S)-8-fluoro-5-oxa-2-azabicyclo[5.1.0]octan-2-yl)-2-(((2R,7aS)-2-fluorotetrahydro-1H-pyrrolizin-7a(5H)-yl)methoxy-d2)-6-(trifluoromethyl)quinazolin-7-yl)naphthalen-2-amine], the IC50 is 500 to 10000 nM.

In turn, `[2H]C([2H])(Oc1nc(N2CCOC[C@H]3[C@H](F)[C@H]32)c2cnc(-c3cc(N)cc4ccc(F)c(C#C)c34)c(C)c2n1)[C@@]12CCCN1C[C@H](F)C2` [Example 329, 5-Ethynyl-6-fluoro-4-(4-((1S,7S,8S)-8-fluoro-5-oxa-2-azabicyclo[5.1.0]octan-2-yl)-2-(((2R,7aS)-2-fluorotetrahydro-1H-pyrrolizin-7a(5H)-yl)methoxy-d2)-8-methylpyrido[4,3-d]pyrimidin-7-yl)naphthalen-2-amine] gave an IC50 below 50 nM. `[2H]C([2H])(Oc1nc(N2CCOC[C@H]3[C@H](F)[C@H]32)c2cnc(-c3cc(O)c(F)c(C)c3C(F)(F)F)c(F)c2n1)[C@@]12CCCN1C[C@H](F)C2` [Example 330, 2-fluoro-5-(8-fluoro-4-((1S,7S,8S)-8-fluoro-5-oxa-2-azabicyclo[5.1.0]octan-2-yl)-2-(((2R,7aS)-2-fluorotetrahydro-1H-pyrrolizin-7a(5H)-yl)methoxy-d2)pyrido[4,3-d]pyrimidin-7-yl)-3-methyl-4-(trifluoromethyl)phenol] registered an IC50 of 50 to 500 nM.

Molecule `[2H]C([2H])(Oc1nc(N2CCOC[C@H]3[C@H](F)[C@H]32)c2cnc(-c3cc(N)cc4ccc(C)c(C#C)c34)c(F)c2n1)[C@@]12CCCN1C[C@H](F)C2` [Example 331, 5-Ethynyl-4-(8-fluoro-4-((1S,7S,8S)-8-fluoro-5-oxa-2-azabicyclo[5.1.0]octan-2-yl)-2-(((2R,7aS)-2-fluorotetrahydro-1H-pyrrolizin-7a(5H)-yl)methoxy-d2)pyrido[4,3-d]pyrimidin-7-yl)-6-methylnaphthalen-2-amine] displayed an IC50 below 50 nM. The molecule `[2H]C([2H])(Oc1nc(N2CCOC[C@H]3[C@H](F)[C@H]32)c2cnc(-c3cccc4ccc(C(F)(F)F)c(C#C)c34)c(F)c2n1)[C@@]12CCCN1C[C@H](F)C2` [Example 332, (1S,7S,8S)-2-(7-(8-ethynyl-7-(trifluoromethyl)naphthalen-1-yl)-8-fluoro-2-(((2R,7aS)-2-fluorotetrahydro-1H-pyrrolizin-7a(5H)-yl)methoxy-d2)pyrido[4,3-d]pyrimidin-4-yl)-8-fluoro-5-oxa-2-azabicyclo[5.1.0]octane] returned an IC50 of 50 to 500 nM. Molecule `[2H]C([2H])(Oc1nc(N2CCOC[C@H]3[C@H](F)[C@H]32)c2cnc(-c3cc(N)cc4ccc(F)c(C#C)c34)c(F)c2n1)[C@@]12CCCN1[C@H](C)[C@H](F)C2` [Example 333, 5-Ethynyl-6-fluoro-4-(8-fluoro-2-(((2R,3R,7aS)-2-fluoro-3-methyltetrahydro-1H-pyrrolizin-7a(5H)-yl)methoxy-d2)-4-((1S,7S,8S)-8-fluoro-5-oxa-2-azabicyclo[5.1.0]octan-2-yl)pyrido[4,3-d]pyrimidin-7-yl)naphthalen-2-amine] had a 50% inhibitory concentration (IC50) below 50 nM.

In the case of `[2H]C([2H])(Oc1nc(N2CCOC[C@H]3[C@H](F)[C@H]32)c2cnc(-c3cc(N)cc4ccc(F)c(C#C)c34)c(F)c2n1)[C@@]12CCCN1[C@@H](C)[C@H](F)C2` [Example 334, 5-ethynyl-6-fluoro-4-(8-fluoro-2-(((2R,3S,7aS)-2-fluoro-3-methyltetrahydro-1H-pyrrolizin-7a(5H)-yl)methoxy-d2)-4-((1S,7S,8S)-8-fluoro-5-oxa-2-azabicyclo[5.1.0]octan-2-yl)pyrido[4,3-d]pyrimidin-7-yl)naphthalen-2-amine], the IC50 is below 50 nM.

(Values after patent US20250282799A1, “SUBSTITUTED PYRIDO[4,3-d]PYRIMIDINES AS KRAS MODULATORS” (Alterome Therapeutics, Inc., priority 2023, published 2025).)
